Columns and labels:
hERG channel = hERG channel (Homo sapiens (Human), UniProt Q12809); experiment: hERG channel inhibition, whole cell patch clamp; format: cell-based; details: 10 μM compound
Experimental: The assay was performed on hERG channel stably expressed in HEK293 cells. The cells were cultured at 37° C. in a humidified CO2 incubator in the growth medium consisting of DMEM, 10% fetal bovine serum and antibiotics. Prior to the assay, the cells were seeded onto a 12 mm PDL-coated glass coverslip and cultured in a 35 mm Petri dish. After 16 to 40 hr culture, the cover slip was transferred into the chamber of OctaFlow perfusion system (ALA Instrument) and under a constant flow of extracellular solution (140 mM NaCl, 4 mM KCl, 1 mM MgCl2, 2 mM CaCl2, 10 mM HEPES, 10 mM D-glucose, pH 7.35, osmolarity 290). Whole cell patch clamping was performed with a glass micropipette filled with intracellular solution (120 mM KCl, 1.75 mM MgCl2, 5.4 mM CaCl2, 10 mM HEPES, 10 mM EGTA, and 4 mM ATP-K2, PH 7.2, osmolarity 310). Giga-seal was maintained during the test. The voltage control and current measurement were carried out using Axon amplifier 700B, Digidata 1440A and CLAMPEX10 software (Molecular Devices). Whole-cell hERG currents were recorded following the Petroski protocol: the cell was held at −80 mV, and the voltage step jumped from −80 to 30 mV and stay for 2 sec with a 20 ms prepulse at −40 mV. After depolarization, the voltage was decreased to −40 mV and stay for 2 sec, and returned back to −80 mV. Test compound was applied by quartz capillary tubes tip (200 μm inner diameter), and the flow rate was controlled at 2-3 ml/min with OctaFlow perfusion system. Different concentrations of the compound were applied to the cells for 5 min and the hERG current was measured three times before, during and after compound treatment. The data were analyzed using Clampfit 10 software (Molecular Devices) to generate IC50 values.

CYP2D6 = CYP2D6 (Homo sapiens (Human), UniProt P10635); experiment: CYP P450 enzyme inhibition in pooled human liver microsomes; format: in vitro ADME; details: 10 μM compound, pooled HLM
Experimental: Those CYP isoforms and their corresponding probe substrates are as follows: CYP1A2 (phenacetin, 30 μM), CYP2C9 (tolutamide, 100 μM), CYP2C19 (S-mephenytoin, 40 μM), CYP2D6 (dextromethorphan, 5 μM) and CYP3A4 (midazolam, 1 μM). All probe substrates were used at concentrations near or below their Kms. For experiment, a reaction mixture of test compound at 10 μM or in serial dilution, CYP probe substrate described above and 0.2 mg/mL pooled HLM in phosphate buffer, pH 7.4 in a final volume of 200 μL was pre-incubated at 37° C. for 10 minutes in triplicate. The reaction was initiated by addition of NADPH at final concentration of 1 mM. The reaction was terminated after 10 minutes (CYP1A2, CYP2D6 and CYP3A4) or 30 minutes (CYP2C9 and CYP2C19) by addition of 100 μL ice-cold acetonitrile with internal standard (IS). The samples were then centrifuged at 13,000 rpm and the supernatants were injected to LC-MS/MS (Agilent Technologies) to quantify the concentration of the specific metabolites of the probe substrates formed by individual CYP450 isoforms. The inhibition ratio is calculated as: (Mt−M0)/Mwater×100% in which Mt and M0 represent the concentrations of the specific probe substrate metabolite, which was formed by individual CYP450 isoform, at the beginning and end of the reaction in the presence of test compound; while Mwater represents the concentration of the specific metabolite at the end of the reaction in the absence of test compound. Test compound concentration-dependent response data experiments performed in triplicate.

rats [1] = experiment: Electroconvulsive Threshold Test (ECT); format: in vivo
Experimental: (§1) Test compound E1-8.2 was administered as the free base.
Rats were administered ECS (rectangular current: 0.6 ms pulse width, 1.5 s duration, 200 Hz) via earclip electrodes connected to a constant current shock generator (Ugo Basile: type 7801). Test compounds were administered by oral gavage (p.o.) 1 hour before the test at a dose volume of 5 mL/kg.
Treatment groups of 20 rats were exposed to ECS as follows: The first animal was exposed to 30 mA of ECS. […] (increases of 5 mA) until the first tonic convulsion was observed. Once the first tonic convulsion was observed, the intensity of ECS was decreased by 2 mA for the next animal and then decreased or increased by 2 mA from animal to animal depending on whether the previous animal convulsed or not. If the first animal did convulse (tonic convulsions) within 5 seconds, animal no 2 is exposed to 25 mA, etc. . . . (decreases of 5 mA) until the absence of tonic convulsions was observed. At this point, the intensity of ECS was increased by 2 mA for the next animal and then decreased or increased by 2 mA from animal to animal depending on whether the previous animal convulsed or not. The minimum current intensity applied is 5 mA and the maximum 95 mA. The first 5 animals serve to approach threshold current and were not included in the analysis. The results are presented as the mean current intensity administered to the final 15 animals of a group. The test was performed blind. A positive percent change indicates an anticonvulsant effect. A negative percent change indicates a proconvulsant effect. The test substance was evaluated at 4 doses, typically using 0.5% dimethylsulfoxide, 4% hydroxypropyl-b-cyclodextrin water as a vehicle, and administered p.o. 60 minutes before ECS, and compared with a vehicle control group. Diazepam (16 mg/kg p.o.), administered under the same experimental conditions, was used as reference substance. The experiment included 6 groups. Data with the test substance was analyzed by comparing treated groups with vehicle control using one-way ANOVA followed by Dunnett's t tests.

rats [2] = experiment: Forced Swim Test in rats; format: in vivo, Wistar rats
Description: (§2) The forced swim test (FST) also known at the behavioural despair test was used to evaluate antidepressant activity (Porsolt et al., 1977 Arch. Int. Pharmacodyn. 229: 327-336, Porsolt et al., 1977, Eur. J. Pharmacol. 47:379-391). Mice or rats that are forced to swim in a situation from which they cannot escape, rapidly become immobile. Drugs with antidepressant activity, such as imipramine, reduce the amount of time spent in the immobile state. Therefore, the amount of immobility time during a test conducted after drug administration represents a useful indicator of antidepressant activity (Lucki et al 2001 Psychopharmacology 155:315-322; Porsolt et al., 1977, Nature 266:730-732).
Male Wistar rats weighing 197-251 g were used for the rat test. Rats were evaluated according to a two-session procedure with a swimming session of 15 minutes on the first day of the experiment (Session 1) followed 24 hours later by a 5-minute swimming test (Session 2). […] Rats were placed in the water 24 h later for 5 minutes (Session 2) and the duration of immobility was measured.
(§3) Animals were observed by a blinded observer. […] The amount of time each animal spent in the immobile state (and the latency to the first bout of immobility) was recorded and used for statistical analysis of compound effect. […]

mice = experiment: Forced Swim Test in mice; format: in vivo
Description: as §2
Mice were evaluated in a single swimming test session of 6 minutes. Mice were placed in a transparent plastic cylinder 24 cm high with a diameter of 13 cm containing 10 cm of water with ambient temperature control generally from 22±2° C. Mice were placed in the water for 6 minutes and the duration of immobility during the last 4 minutes was measured.
as §3, with “effect. Group differences were evaluated by student's t-test (reference substance) or one-way ANOVA followed by post-hoc Dunnett's test (test substances).” for “effect.”
Male mice (strain NLMN) weighing 25-35 g were used for testing. […] The mice were videotaped for 6 minutes, and the last 4 minutes of video were analyzed by a blinded observer off-line. […] The amount of time each animal spent in the immobile state was recorded and used for statistical analysis of compound effect. Group differences were evaluated by student's t-test or one-way ANOVA followed by post-hoc Dunnett's test.
Mice were individually placed in a cylinder (height=24 cm; diameter=13 cm) containing 10 cm water (22° C.) from which they cannot escape. The mice were placed in the water for 6 minutes and the duration of immobility during the last 4 minutes was measured. […]

rats [3] = experiment: Pentylenetetrazole (PTZ) Seizure Test; format: in vivo; details: 10 mg/kg p.o. 30 min before PTZ 100 mg/kg s.c.
Experimental: Rats, placed in individual macrolon cages (25×19×13 cm), were injected with pentylenetetrazole (PTZ) (100 mg/kg s.c.). The occurrence and latency of clonic and tonic convulsions and death were noted over a 30 minute period. 15 rats were studied per group. The test was performed blind.
as §1
Compounds were evaluated typically using 0.5% dimethylsulfoxide, 4% hydroxypropyl-b-cyclodextrin water as a vehicle at 1 or more doses (e.g., 1, 3 and 10 mg/kg), administered p.o. 30 minutes before PTZ, and compared with a vehicle control group. Diazepam (16 mg/kg p.o.), administered 60 minutes before PTZ, was used as reference substance. The experiment was performed over 2 separate sub-experiments with N=7 to 8 animals per group and per sub-experiment. Quantitative data (latencies) with the test substance was analyzed by comparing treated groups with vehicle control using Kruskal-Wallis test followed by Mann-Whitney U test. Quantitative data with the reference substance was analyzed using Mann-Whitney U test. Quantal data (frequencies) was analyzed by comparing treated groups with vehicle control using Fisher's Exact Probability tests (*=p<0.05; **=p<0.01; ***=p<0.001).

CYP2D6, sequence (P10635 whole entry): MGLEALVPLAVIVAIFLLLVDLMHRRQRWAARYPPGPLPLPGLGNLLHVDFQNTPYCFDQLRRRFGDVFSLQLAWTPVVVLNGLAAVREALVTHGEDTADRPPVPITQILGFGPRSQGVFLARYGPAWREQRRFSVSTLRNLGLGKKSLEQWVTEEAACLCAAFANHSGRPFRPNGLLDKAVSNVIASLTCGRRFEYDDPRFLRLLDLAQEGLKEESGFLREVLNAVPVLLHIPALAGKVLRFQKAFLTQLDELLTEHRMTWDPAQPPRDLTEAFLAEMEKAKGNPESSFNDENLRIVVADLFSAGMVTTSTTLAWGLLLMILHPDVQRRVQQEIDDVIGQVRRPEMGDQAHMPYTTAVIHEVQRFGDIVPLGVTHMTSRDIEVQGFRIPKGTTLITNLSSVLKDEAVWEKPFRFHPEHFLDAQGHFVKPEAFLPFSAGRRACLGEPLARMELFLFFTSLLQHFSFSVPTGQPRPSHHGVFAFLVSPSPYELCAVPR
hERG channel, sequence (Q12809 whole entry): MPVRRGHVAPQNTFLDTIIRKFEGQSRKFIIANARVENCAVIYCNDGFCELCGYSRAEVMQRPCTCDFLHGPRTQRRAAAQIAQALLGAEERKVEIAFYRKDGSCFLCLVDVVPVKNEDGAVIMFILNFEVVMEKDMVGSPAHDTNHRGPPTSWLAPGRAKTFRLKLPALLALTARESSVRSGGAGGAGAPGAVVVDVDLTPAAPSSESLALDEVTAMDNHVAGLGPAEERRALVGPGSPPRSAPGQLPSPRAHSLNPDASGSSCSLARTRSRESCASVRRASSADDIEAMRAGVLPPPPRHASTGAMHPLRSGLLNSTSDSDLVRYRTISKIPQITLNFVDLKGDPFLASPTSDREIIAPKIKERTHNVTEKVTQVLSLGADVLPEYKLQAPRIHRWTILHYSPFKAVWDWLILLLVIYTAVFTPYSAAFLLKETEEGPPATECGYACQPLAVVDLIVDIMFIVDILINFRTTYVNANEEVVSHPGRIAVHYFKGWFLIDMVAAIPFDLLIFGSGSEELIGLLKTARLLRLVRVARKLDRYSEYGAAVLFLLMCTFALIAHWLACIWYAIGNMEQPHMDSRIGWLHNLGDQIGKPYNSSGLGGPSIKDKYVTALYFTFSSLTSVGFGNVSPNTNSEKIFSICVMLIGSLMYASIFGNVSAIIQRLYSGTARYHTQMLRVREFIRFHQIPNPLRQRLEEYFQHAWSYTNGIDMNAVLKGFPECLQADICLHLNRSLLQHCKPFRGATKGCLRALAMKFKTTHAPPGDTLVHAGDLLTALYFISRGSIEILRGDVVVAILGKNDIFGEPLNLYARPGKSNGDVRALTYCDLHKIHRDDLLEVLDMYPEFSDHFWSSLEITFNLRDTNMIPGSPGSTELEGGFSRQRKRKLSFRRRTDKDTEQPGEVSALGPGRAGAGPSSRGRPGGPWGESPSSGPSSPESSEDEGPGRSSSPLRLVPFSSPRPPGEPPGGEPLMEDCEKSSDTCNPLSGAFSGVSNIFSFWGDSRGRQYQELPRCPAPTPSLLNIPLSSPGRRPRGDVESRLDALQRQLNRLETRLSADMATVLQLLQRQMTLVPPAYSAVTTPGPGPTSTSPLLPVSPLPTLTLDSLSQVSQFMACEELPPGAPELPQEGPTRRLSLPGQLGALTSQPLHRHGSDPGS

Row | Structure (SMILES) | hERG @ 10 μM (%) (hERG channel) | CYP2D6 @ 10 μM (%) (CYP2D6) | also measured
1 | O=C(OCc1ccc(Cl)cc1)N1CC[C@H](CNc2nccn3cnnc23)C(F)(F)C1 [Compound E1-1.3, R-4-chlorobenzyl 4-(([1,2,4]triazolo[4,3-a]pyrazin-8-ylamino)methyl)-3,3-difluoropiperidine-1-carboxylate] | 19 | 37 | –
2 | Cc1ccc(COC(=O)N2CC[C@H](CNc3ncc4cn[nH]c4n3)C(F)(F)C2)cc1 [Compound E1-8.2, (+)-R-4-methylbenzyl-4-((1H-pyrazolo[3,4-d]pyrimidin-6-ylamino)methyl)-3,3-difluoropiperidine-1-carboxylate] | 57 | 83 | activity on electroconvulsive threshold (rats [1]; 0.5 and 2 mpk p.o., free base): modest proconvulsant activity; activity on electroconvulsive threshold (rats [1]; 10 and 20 mpk p.o., free base): anticonvulsant activity
3 | Cc1ccc(COC(=O)N2CC[C@H](CNc3cncc4nncn34)C(F)(F)C2)cc1 [Compound E1-2.2, R-4-methylbenzyl 4-(([1,2,4]triazolo[4,3-a]pyrazin-5-ylamino)methyl)-3,3-difluoropiperidine-1-carboxylate] | 32 | 18 | –
4 | FC(F)(F)c1ccc(C(F)(F)CN2CCC(Nc3ncnc4[nH]ncc34)CC2)cc1 [LX-1, reference compound] | – | 93 | –
5 | CN(C)CCCN1c2ccccc2CCc2ccccc21 [imipramine] | – | – | antidepressant activity (immobility time) (rats [2]; 32 mpk i.p. 3 times: 24 h, 4 h and 30 min before Session 2): showed the expected antidepressant activity; antidepressant activity (immobility time) (rats [2]; 64 mpk p.o. 3 times: 24 h, 4 h and 60 min before Session 2): showed the expected antidepressant activity; antidepressant activity (immobility time) (mice; 32 mpk i.p. once 30 min before the test): showed the expected antidepressant activity; antidepressant activity (immobility time) (mice; 64 mpk p.o. once 60 min before the test): showed the expected antidepressant activity; antidepressant activity (immobility time) (mice; 128 mpk p.o. once 60 minutes before the test on Day 7): showed the expected antidepressant activity
6 | O=C(OCc1ccc(F)cc1)N1CC[C@H](CNc2nccn3cnnc23)C(F)(F)C1 [Compound E1-1.4, R-4-fluorobenzyl 4-(([1,2,4]triazolo[4,3-a]pyrazin-8-ylamino)methyl)-3,3-difluoropiperidine-1-carboxylate] | 11 | 19 | –
7 | Cc1ccc(COC(=O)N2CC[C@@H](CNc3nccn4cnnc34)C(F)(F)C2)cc1 [Compound E2-1.2, (−)-S-4-methylbenzyl 4-(([1,2,4]triazolo[4,3-a]pyrazin-8-ylamino)methyl)-3,3-difluoropiperidine-1-carboxylate] | 22 | – | –
8 | CN1C(=O)CN=C(c2ccccc2)c2cc(Cl)ccc21 [diazepam, reference compound] | – | – | activity on electroconvulsive threshold (rats [1]; 16 mpk p.o.): showed the expected anticonvulsant activity
9 | Cn1c(=O)c2[nH]cnc2n(C)c1=O [theophylline, reference compound] | – | – | activity on electroconvulsive threshold (rats [1]; 128 mpk p.o.): showed the expected proconvulsant activity
10 | Cc1ccc(COC(=O)N2CC[C@H](CNc3cnc(C)cn3)C(F)(F)C2)cc1 [Compound E1-21.26, R-4-methylbenzyl 3,3-difluoro-4-((5-methylpyrazin-2-ylamino)-methyl)piperidine-1-carboxylate] | 39 | 32 | activity on electroconvulsive threshold (rats [1]; 3 and 10 mpk p.o., mesylate salt): anticonvulsant activity; change in latency to death (rats [3]): +31%; change in number of deaths vs vehicle controls (rats [3]): −82%
11 | Cc1ccc(COC(=O)N2CC[C@H](CNc3cnccn3)C(F)(F)C2)cc1 [Compound E1-21.2, R-4-methylbenzyl 3,3-difluoro-4-((pyrazin-2-ylamino)methyl)piperidine-1-carboxylate] | 27 | 97 | –
12 | Cc1ccc(COC(=O)N2CC[C@H](CNc3nc4ccccn4n3)C(F)(F)C2)cc1 [Compound E1-9.2, (+)-R-4-methylbenzyl 4-(([1,2,4]triazolo[1,5-a]pyridin-2-ylamino)methyl)-3,3-difluoropiperidine-1-carboxylate] | 38 | 14 | –

From US11136328B2, “3,3-difluoropiperidine carbamate heterocyclic compounds as NR2B NMDA receptor antagonists” (Rugen Holdings (Cayman) Limited, priority 2015, dated 2021)
